A word on the IC50: it is the point on the concentration scale where inhibition reaches its midpoint. By AC50 is commonly meant the midpoint of the concentration-response curve, whichever way the signal moves. As a reminder, the CC50 is the concentration giving 50% cytotoxicity. The term EC50 denotes the midpoint of the concentration-response curve.

The text below walks through data of ChEMBL document CHEMBL1201862, “PubChem BioAssay data set” (2004).

The structures appear in SMILES notation. Activity calls are given as the source filed them. Some results are limits rather than exact numbers.

The target of assay [1] is Intestinal-type alkaline phosphatase (Homo sapiens, UniProt P09923). The experiment in a line: inhibition of human intestinal alkaline phosphatase – biochemical, dose response (AID 488876). Type of assay: functional.
In assay [2] the target is Intestinal-type alkaline phosphatase (Mus musculus, UniProt P24822). Kind of assay: PubChem AID 488785. Type of assay: functional.
The target in assay [3] is T1, Alkaline phosphatase, tissue-nonspecific isozyme (Homo sapiens, UniProt P05186).
T1 sequence (P05186 whole entry): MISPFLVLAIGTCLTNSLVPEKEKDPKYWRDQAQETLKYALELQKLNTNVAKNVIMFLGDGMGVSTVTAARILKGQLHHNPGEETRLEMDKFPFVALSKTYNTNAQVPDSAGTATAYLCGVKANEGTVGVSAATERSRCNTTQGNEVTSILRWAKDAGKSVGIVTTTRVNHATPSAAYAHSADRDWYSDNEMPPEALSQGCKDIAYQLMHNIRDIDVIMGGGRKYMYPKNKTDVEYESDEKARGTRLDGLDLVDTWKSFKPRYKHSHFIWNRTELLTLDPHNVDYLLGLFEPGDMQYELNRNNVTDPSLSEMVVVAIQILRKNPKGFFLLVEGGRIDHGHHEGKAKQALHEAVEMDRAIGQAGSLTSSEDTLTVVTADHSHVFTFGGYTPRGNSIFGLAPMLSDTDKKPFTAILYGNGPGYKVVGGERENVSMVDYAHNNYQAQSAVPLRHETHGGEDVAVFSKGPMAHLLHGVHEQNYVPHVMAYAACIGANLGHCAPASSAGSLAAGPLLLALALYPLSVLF
The experiment in a line: TNAP enzyme inhibition by screening hits, dose response, selectivity assay for mouse IAP inhibitor project, biochemical, human TNAP, uHTS hits (AID 488906). In kind it is functional.

Assay [4] has as its target T2, Ubiquitin-conjugating enzyme E2 N (Homo sapiens, UniProt P61088).
T2 sequence (P61088 whole entry): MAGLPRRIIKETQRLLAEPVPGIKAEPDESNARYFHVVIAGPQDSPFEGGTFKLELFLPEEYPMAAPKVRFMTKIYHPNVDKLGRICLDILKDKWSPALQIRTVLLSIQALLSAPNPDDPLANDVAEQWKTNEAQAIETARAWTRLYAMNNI
In kind it is functional.

For a further assay, the target named is Cytochrome P450 2D6 (Homo sapiens, UniProt P10635).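 Further: CYP2D6 member of a cytochrome P450 panel assay.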
The next assay addresses Bcl-2-related protein A1 (Mus musculus, UniProt Q07440). Type of assay: functional.
Assay [5] addresses T2, Ubiquitin-conjugating enzyme E2 N. In kind it is functional. This is another data set of the same source.
Assay [6] can be described thus: HEp-2 cell cytotoxicity, dose response, cytotoxicity control for RSV inhibitor project, HTS (AID 2410). In kind it is functional. The settings on record: human respiratory syncytial virus.
The target of a further assay is Troponin, cardiac muscle (Homo sapiens, UniProt P19429+P45379+P63316). The experiment in a line: Fluorescence-based biochemical high throughput dose response assay for activators of the calcium sensitivity of cardiac Regulated Thin Filaments (RTF). [Related pubchem assays (depositor defined):AID493008, AID493018, AID504382, AID504383]. In kind it is protein-complex assay.

For assay [7], the target named is T3, Endoribonuclease toxin MazF (Escherichia coli K-12, UniProt P0AE70).
T3 sequence (P0AE70 whole entry): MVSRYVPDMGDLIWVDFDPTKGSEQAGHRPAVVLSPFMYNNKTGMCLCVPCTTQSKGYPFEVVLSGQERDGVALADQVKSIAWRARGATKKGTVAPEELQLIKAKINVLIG
The experiment in a line: MazF toxin RNase activators, dose response, biochemical, fluorescence, single-stranded RNA substrate, uHTS hits (AID 588481). Type of assay: functional.

For assay [8], the target named is T4, Zinc finger protein mex-5 (Caenorhabditis elegans, UniProt Q9XUB2).
T4 sequence (Q9XUB2 whole entry): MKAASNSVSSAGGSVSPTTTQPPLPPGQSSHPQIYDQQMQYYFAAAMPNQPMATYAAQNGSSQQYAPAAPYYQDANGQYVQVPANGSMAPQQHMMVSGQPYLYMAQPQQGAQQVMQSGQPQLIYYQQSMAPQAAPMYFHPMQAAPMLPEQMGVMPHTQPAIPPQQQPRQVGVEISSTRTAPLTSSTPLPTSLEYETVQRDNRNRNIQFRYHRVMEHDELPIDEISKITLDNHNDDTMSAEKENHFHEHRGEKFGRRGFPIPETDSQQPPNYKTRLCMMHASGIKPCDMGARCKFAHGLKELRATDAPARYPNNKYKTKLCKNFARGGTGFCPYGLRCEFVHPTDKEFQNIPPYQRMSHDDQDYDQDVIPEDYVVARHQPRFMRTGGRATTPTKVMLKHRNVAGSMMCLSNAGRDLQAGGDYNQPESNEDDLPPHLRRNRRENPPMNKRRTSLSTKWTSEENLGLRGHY
The experiment in a line: MEX-5/TCR-2 RNA interaction inhibitors, dose response, biochemical, C. elegans, fluorescence polarization (AID 1960). (In fluorescence polarisation assays a small probe gives low polarisation when free and higher when bound to something large.)

For assay [9], the target named is T3, Endoribonuclease toxin MazF. Kind of assay: fluorescent RNA oligo signal without MazF, dose response, counter-screen for MazEF activator project, biochemical, fluorescence, single-stranded RNase substrate (AID 588502). In kind it is functional. For orientation: A counterscreen serves to expose hits that act by an unwanted route or on another target.
The target in a further assay is NS3 (Hepatitis C virus, UniProt A3EZJ3). The experiment in a line: PubChem AID 2173. Further details: species or system Hepacivirus hominis.
For assay [10], the target named is T5, RNA-binding protein pos-1 (Caenorhabditis elegans, UniProt G5EF15).
T5 sequence (G5EF15 whole entry): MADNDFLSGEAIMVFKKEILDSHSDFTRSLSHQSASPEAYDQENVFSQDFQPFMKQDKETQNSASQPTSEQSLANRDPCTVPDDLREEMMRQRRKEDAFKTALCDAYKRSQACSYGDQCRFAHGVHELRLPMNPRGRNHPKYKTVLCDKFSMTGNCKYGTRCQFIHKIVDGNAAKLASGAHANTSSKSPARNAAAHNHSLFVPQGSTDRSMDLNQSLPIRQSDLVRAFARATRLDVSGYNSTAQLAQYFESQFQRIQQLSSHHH
The experiment in a line: inhibitors of POS-1/mex-3 RNA binding, dose response, biochemical, fluorescence polarization (AID 1964).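 Further: purified POS-1 fused to maltose binding protein made in E. coli; potency of compounds blocking POS-1 binding to fluorescent RNA.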

In assay [11] the target is Peroxisome proliferator-activated receptor gamma/Nuclear receptor coactivator 3 (Homo sapiens, UniProt P37231). In kind it is functional.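 Further: agonist potency for raising coactivator recruitment to the receptor.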
Assay [12] deals with Peroxisome proliferator-activated receptor gamma/Nuclear receptor coactivator 1 (Homo sapiens, UniProt P37231). Type of assay: functional.
Assay [13] has as its target Peroxisome proliferator-activated receptor gamma/Nuclear receptor coactivator 2 (Homo sapiens, UniProt P37231). Type of assay: functional.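 Further: agonist potency for raising coactivator recruitment to the receptor.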
The nature of assay [14]: HepG2 cell cytotoxicity, dose response, cytotoxicity control, plate reader, cherry-pick, antagonist series (AID 743416). Type of assay: functional, cell-based.
Assay [15] is described as follows: LGR2 antagonists, dose response, cell-based, HEK293, CRE-luciferase reporter, cherry pick, set 2 (AID 743343).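 Further: transfected cells were stimulated with diluted bursicon conditioned medium after compound addition.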 Type of assay: functional. (Reporter assays use an easily measured gene product as a stand-in for the process of interest.)
Assay [16] can be described thus: MC4R antagonists, dose response, counter-screen for LGR2 antagonist project, cell-based, plate reader, cherry pick (AID 743444).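 Further: transfected HEK 293 cells stimulated with alpha-MSH peptide; potency of inhibitors of the alpha-MSH evoked signal.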 Type of assay: functional.
Assay [17] addresses T6, Type-1 angiotensin II receptor (Homo sapiens, UniProt P30556).
T6 sequence (P30556 whole entry): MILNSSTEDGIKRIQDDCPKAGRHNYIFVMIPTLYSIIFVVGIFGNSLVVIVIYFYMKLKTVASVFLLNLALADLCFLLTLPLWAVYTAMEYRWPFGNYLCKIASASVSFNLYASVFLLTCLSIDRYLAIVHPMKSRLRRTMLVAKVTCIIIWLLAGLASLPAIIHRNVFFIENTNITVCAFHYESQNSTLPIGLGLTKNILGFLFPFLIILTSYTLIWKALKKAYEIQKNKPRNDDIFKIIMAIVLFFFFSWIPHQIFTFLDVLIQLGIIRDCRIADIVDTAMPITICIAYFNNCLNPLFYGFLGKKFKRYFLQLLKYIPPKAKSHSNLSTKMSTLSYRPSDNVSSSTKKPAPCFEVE
The experiment in a line: AT1 receptor agonists, dose response, selectivity assay for APJ receptor agonist project, cell-based, uHTS hits (AID 488865).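 Further: beta-arrestin recruitment to AT1 measured by enzyme fragment complementation luminescence.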 In kind it is functional.

The test system of a further assay is H9c2. The experiment in a line: cells. In kind it is functional, cell-based. Particulars: Rattus norvegicus, H9c2, Myocardium.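 Further: confirmatory concentration-response retest of ultra-high-throughput screening hits for modulation of myocardial damage; cell death induced by hydrogen peroxide oxidative stress; compound pretreatment for 60 min then peroxide exposure for 2 h; potency is for protecting the cells against peroxide damage rather than for killing them.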
A short description of assay [18]: cells. In kind it is functional, cell-based.
A short description of assay [19]: cells. Type of assay: functional, cell-based. The source holds these as a separate data set.
A short description of assay [20]: A549 cell cytotoxicity, dose response, cytotoxicity control, plate reader, cherry-pick, antagonist series (AID 743412). In kind it is functional, cell-based.
For a further assay, the target named is Large T antigen (Simian virus 40, UniProt P03070). Type of assay: functional, Betapolyomavirus macacae.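 Further: Confirmatory-stage PubChem screen for compounds that inhibit SV40 T antigen.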
The target of assay [21] is Induced myeloid leukemia cell differentiation protein Mcl-1 (Homo sapiens, UniProt Q07820). Type of assay: functional.
The target of assay [22] is T7, E3 ubiquitin-protein ligase XIAP (Homo sapiens, UniProt P98170). The experiment in a line: Counter Screen using XIAP-Bir3 for Chemical Antagonists of Bir1/2 domains of IAP-family anti-apoptotic proteins. [Related pubchem assays (depositor defined):AID1018, AID1449, AID1514, AID1638, AID1749, AID1750, AID488957, AID488963].
The target in assay [23] is T7, E3 ubiquitin-protein ligase XIAP. The experiment in a line: XIAP antagonists, biochemical, IAP family, fluorescence polarization (AID 1018). Type of assay: functional.

T7 sequence (P98170 whole entry): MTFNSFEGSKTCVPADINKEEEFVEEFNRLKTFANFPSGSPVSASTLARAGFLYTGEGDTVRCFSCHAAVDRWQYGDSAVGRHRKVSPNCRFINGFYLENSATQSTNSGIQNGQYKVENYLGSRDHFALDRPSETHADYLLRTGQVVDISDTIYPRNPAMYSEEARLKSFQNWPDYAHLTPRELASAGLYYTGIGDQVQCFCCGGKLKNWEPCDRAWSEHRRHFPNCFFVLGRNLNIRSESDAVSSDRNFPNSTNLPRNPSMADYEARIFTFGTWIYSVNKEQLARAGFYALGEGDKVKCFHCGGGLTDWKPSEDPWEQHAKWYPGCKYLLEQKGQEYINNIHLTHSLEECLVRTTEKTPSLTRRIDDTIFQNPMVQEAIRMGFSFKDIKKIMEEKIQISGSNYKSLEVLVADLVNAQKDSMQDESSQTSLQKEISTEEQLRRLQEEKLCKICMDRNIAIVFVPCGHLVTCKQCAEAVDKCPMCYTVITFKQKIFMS
Sequence of Intestinal-type alkaline phosphatase (Homo sapiens, UniProt P09923) (P09923 whole entry): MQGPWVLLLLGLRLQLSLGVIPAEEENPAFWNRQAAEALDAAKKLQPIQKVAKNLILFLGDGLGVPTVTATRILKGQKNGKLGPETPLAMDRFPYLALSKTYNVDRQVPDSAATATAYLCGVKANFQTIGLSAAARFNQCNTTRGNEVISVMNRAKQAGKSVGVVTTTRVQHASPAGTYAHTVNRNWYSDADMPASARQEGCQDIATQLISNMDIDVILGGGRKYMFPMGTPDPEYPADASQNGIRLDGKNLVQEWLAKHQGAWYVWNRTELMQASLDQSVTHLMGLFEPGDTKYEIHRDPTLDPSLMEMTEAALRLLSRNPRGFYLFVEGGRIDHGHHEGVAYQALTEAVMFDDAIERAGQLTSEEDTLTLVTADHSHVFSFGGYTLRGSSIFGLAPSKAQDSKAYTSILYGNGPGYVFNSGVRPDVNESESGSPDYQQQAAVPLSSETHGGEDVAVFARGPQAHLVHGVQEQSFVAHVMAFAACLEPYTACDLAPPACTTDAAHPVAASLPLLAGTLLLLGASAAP
Sequence of Intestinal-type alkaline phosphatase (Mus musculus, UniProt P24822) (P24822 whole entry): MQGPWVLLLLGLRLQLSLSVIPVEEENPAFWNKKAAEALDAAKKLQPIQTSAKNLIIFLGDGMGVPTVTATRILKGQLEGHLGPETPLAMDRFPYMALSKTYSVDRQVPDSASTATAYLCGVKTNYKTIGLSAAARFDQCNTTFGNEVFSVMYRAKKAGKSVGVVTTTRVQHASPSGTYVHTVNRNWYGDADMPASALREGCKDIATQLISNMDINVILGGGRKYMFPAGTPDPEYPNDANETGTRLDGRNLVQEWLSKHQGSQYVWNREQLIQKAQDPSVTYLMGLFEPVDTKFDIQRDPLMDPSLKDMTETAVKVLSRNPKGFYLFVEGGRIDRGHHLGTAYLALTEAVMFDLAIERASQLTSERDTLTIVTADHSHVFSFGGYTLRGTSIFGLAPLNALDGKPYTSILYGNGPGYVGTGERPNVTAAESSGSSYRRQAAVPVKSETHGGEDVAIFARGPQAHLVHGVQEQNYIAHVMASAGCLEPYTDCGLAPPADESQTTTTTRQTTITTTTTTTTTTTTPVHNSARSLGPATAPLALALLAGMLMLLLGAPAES
Sequence of Bcl-2-related protein A1 (Q07440 whole entry): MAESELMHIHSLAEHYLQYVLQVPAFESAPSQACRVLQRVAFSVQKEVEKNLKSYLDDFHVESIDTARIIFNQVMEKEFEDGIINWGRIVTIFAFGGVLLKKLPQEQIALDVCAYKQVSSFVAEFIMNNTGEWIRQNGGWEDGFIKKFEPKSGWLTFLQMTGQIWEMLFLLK
Sequence of NS3 (A3EZJ3 whole entry): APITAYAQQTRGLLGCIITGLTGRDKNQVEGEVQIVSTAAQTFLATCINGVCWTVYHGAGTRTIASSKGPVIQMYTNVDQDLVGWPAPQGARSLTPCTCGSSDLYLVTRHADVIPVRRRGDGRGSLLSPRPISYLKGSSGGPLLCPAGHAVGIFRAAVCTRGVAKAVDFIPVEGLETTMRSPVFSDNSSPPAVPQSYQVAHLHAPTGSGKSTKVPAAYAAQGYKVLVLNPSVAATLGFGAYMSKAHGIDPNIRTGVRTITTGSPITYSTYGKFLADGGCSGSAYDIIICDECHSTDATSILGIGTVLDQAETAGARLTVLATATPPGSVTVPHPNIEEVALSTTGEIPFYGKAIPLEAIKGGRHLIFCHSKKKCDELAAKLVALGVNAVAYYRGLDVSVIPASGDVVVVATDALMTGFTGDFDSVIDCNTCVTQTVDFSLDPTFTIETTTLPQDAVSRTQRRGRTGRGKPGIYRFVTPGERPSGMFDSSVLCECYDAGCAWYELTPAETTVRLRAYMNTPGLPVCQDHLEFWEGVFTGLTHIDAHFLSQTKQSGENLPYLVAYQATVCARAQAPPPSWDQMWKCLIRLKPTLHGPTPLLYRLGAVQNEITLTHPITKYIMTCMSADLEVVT
Sequence of Cytochrome P450 2D6 (P10635 whole entry): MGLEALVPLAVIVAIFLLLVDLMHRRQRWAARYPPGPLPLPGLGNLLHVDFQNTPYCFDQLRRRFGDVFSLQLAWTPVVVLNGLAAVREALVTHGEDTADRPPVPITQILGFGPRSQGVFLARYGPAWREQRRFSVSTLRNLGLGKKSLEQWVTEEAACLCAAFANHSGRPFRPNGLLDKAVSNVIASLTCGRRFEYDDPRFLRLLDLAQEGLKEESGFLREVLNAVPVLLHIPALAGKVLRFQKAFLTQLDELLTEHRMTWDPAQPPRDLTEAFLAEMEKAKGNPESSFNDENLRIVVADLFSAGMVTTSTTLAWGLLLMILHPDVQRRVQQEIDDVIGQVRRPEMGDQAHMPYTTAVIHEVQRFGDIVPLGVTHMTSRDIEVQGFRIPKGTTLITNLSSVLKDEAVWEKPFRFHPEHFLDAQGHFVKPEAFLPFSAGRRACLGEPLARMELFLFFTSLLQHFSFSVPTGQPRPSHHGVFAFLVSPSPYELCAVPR
Sequence of Peroxisome proliferator-activated receptor gamma/Nuclear receptor coactivator 2 (P37231 whole entry): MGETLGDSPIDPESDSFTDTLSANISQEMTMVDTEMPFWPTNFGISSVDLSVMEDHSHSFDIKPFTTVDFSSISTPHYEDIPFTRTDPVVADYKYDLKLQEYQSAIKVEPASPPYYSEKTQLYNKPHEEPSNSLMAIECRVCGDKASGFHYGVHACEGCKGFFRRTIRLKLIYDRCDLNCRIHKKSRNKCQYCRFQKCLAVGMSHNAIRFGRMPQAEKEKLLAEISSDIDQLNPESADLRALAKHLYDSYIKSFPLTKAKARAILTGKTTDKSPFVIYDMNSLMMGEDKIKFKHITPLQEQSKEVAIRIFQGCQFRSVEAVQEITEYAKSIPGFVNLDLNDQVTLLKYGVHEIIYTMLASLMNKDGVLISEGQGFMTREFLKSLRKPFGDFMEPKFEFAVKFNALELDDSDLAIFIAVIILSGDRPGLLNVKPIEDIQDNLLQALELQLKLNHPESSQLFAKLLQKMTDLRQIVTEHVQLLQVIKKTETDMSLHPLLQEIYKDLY
Sequence of Peroxisome proliferator-activated receptor gamma/Nuclear receptor coactivator 2 (Q15596 whole entry, further chain): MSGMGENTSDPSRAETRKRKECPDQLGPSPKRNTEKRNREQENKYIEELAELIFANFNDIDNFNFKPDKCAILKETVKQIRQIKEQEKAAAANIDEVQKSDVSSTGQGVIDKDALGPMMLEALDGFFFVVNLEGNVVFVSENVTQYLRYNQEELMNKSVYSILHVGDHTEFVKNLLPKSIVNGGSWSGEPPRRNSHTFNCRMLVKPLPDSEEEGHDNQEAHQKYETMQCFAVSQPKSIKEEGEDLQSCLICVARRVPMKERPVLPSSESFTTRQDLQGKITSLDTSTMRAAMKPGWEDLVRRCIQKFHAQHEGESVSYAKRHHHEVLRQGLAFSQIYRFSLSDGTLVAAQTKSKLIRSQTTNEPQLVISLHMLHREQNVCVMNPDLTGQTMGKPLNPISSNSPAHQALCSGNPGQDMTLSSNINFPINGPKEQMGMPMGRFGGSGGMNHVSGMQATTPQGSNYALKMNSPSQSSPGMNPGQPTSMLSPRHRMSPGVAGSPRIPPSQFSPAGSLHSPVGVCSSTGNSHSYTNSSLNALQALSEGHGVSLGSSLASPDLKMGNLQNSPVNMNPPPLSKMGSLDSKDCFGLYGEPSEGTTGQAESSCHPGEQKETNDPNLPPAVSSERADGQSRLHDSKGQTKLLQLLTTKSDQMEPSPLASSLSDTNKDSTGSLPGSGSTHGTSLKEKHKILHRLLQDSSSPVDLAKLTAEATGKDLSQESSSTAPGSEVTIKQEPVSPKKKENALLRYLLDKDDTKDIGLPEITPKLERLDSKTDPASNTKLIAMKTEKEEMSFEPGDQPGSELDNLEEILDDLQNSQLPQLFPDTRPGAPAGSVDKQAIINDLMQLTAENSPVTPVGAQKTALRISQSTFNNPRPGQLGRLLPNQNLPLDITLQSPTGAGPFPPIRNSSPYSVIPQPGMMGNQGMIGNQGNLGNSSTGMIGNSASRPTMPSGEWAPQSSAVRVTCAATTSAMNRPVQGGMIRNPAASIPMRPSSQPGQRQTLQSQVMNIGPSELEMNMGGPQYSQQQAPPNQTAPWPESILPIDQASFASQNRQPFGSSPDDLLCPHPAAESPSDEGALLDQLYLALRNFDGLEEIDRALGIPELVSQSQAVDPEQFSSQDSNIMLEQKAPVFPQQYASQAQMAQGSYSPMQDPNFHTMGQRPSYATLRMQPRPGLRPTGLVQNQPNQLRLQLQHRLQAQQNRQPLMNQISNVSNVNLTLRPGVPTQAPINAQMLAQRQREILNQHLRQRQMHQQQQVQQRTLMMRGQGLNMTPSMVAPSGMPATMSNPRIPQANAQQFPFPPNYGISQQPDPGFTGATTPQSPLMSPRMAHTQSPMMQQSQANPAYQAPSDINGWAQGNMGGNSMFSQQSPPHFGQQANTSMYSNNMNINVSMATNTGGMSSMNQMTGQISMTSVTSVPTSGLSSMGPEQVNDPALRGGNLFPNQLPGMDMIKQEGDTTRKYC

With `CC(/C=C/C1(O)C(C)CC(=O)CC1(C)C)OC1OC(CO)C(O)C(O)C1O` (stereo not given), the IC50 is > 100 µM (inactive) in assay [1], 9.13 µM (active) in [2] and > 100 µM (inactive) in [3].
Consider `O=C(CCCn1c(=S)[nH]c2ccc(Br)cc2c1=O)N1CCN(c2ccccn2)CC1`, for which the IC50 in assay [4] is > 20 µM (inactive); on Bcl-2-related protein A1, > 20 µM (inactive); in [5] it was 19.6 µM (active). In addition, at Cytochrome P450 2D6, the concentration at half-maximal activity (AC50) is 15.8 µM (inconclusive). Further, the CC50 in assay [6] is 23.6 µM (active).
Turning to `CSc1ccc(C2C(C(=O)c3ccco3)=C(O)C(=O)N2c2nnc(SC)s2)cc1` (stereo not given), the EC50 at Troponin, cardiac muscle was 0.279 µM (active); in assay [7] it was > 99 µM (inactive); in [8], 16.4 µM (active); in assay [9], > 99 µM (inactive); in assay [10], 6.79 µM (active). Further, the half-inhibitory concentration (IC50) at NS3 is 4.87 µM (active).
Regarding `Cn1nc(-c2ccccc2)c(C(=O)Nc2ccc(C(F)(F)F)cc2)c1Cl`, the EC50 is > 79.4 µM (not active) in assay [11]; > 71.5 µM (inactive) at Troponin, cardiac muscle; > 79.4 µM (not active) in assay [12]; > 79.4 µM (not active) in [13].
As to `CC(C)C(=O)N1CCN(c2ccc(NC(=O)COc3ccccc3[N+](=O)[O-])cc2)CC1`, the AC50 in assay [14] was 41.7 µM (active); in assay [15] it was 31.2 µM (active); in assay [16], 20 µM (active); in assay [20], > 52 µM (inactive). In addition, the EC50 was > 100 µM (inactive) in assay [17], > 350 µM (not active) in “cells [18]” and > 350 µM (not active) in the assay “cells [19]”. For the same compound, the IC50 in the assay on H9c2 was > 79 µM (inactive).
Consider `O=C1CC(c2ccc(O)c(O)c2)Oc2c1ccc(O)c2O` (stereo not given), for which the IC50 on Large T antigen is 1.91 µM (active); in [21] it was 2.99 µM (active); in [1], 24.8 µM (active); in assay [2] it was 14.8 µM (active); in assay [3], > 100 µM (inactive).
With `Cc1ccc(NS(=O)(=O)c2cc(C(=O)N(C)C)ccc2C)cc1C`, the IC50 in assay [22] is > 100 µM (inactive); in assay [23], > 100 µM (not active).
On to `CCC(C)NC(=O)C(=O)NC1CCCC1` (stereo not given), for which the IC50 in assay [22] was > 100 µM (inactive); in assay [23] it was > 100 µM (not active).
